Test results reported in publication PMC5516028, “Molecular tools for GABAA receptors: High affinity ligands for β1-containing subtypes” (Scientific Reports, 2017).
Values joined by “and” are separate entries in the source; they are usually repeats but may differ in a detail not shown here. Equal entries are not always repeated. Where two headings read alike, the source gives them in different places.

What was measured:
Type in all cases: cell-based
[1] = target: T1, α1β1 GABAA receptors (Rattus norvegicus, UniProt P15431+P62813); assay: Two electrode voltage clamp in Xenopus laevis oocytes, α1β1; conditions: for activity at 0.3 µM: 300 nM
T1 construct: expressed in transfected cells; host or cells: Xenopus laevis oocytes, mRNA injected
T1 sequence (P62813 28-455): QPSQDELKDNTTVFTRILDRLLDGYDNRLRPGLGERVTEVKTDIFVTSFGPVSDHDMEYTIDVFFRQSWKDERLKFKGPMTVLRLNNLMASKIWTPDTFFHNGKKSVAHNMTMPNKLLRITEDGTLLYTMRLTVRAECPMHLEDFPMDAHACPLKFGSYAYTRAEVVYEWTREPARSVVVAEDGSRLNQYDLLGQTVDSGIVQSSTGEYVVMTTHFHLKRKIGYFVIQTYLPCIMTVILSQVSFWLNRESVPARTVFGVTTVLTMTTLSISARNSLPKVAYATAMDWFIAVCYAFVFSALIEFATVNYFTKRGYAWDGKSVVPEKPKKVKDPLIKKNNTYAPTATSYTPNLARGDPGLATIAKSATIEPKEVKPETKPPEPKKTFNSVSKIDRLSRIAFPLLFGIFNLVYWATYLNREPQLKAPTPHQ
T1 sequence (P15431 26-474): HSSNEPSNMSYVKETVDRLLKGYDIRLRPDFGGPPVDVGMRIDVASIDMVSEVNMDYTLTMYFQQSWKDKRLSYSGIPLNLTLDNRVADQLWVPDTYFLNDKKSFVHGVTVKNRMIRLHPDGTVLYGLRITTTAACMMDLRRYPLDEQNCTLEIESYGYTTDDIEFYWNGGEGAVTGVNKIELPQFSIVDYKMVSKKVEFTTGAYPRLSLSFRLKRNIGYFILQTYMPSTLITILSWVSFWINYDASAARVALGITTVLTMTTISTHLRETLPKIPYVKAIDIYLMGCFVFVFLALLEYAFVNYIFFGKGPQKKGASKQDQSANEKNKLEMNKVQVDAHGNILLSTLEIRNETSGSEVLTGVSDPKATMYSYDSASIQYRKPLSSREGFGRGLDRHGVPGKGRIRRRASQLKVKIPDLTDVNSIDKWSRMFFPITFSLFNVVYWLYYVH
Text: (§1) cDNA’s of rat GABAA receptor subunits α1, α4, β1, β2, β3 and γ2S were cloned as described. cDNAs of the rat subunits α2, α3 and α5 were gifts from P. Malherbe, that of α6 and γ1 were gifts of P. Seeburg and that of δ was a gift of C. Czajkowski. The mutants were constructed using the Q5 Site-Directed Mutagenesis Kit (New England Biolabs) following manufacturer’s instruction. We used the wild-type rat β3-pCI vector as template and the primers […] and […] resulting in a substitution of amino acid N41 (AAC) to R (AGG). We used the wild-type rat β1-pCI vector as template and the primers […] and […] resulting in a substitution of amino acid R41 (CGG) to N (AAC). The mutated subunits were confirmed by sequencing.
(§2) In vitro transcription of mRNA was based on the cDNA expression vectors encoding for rat GABAA receptor subunits α1–6, β1-3, γ1,2, δ and the two β mutants (β1R41N and β3N41R)[40]. After linearizing the cDNA vectors with appropriate restriction endonucleases, the cDNA was purified and concentrated with the DNA Clean and Contentrator ^TM Kit (Zymoresearch, Catalog No. D4005). Capped transcripts of the purified cDNA were produced using the mMESSAGE mMACHINE® T7 transcription kit (Ambion, TX, USA) and polyadenylated using the Ambion PolyA tailing kit (Ambion). After transcription and polyadenylation the RNA was purified with the MEGAclear ^TM Kit (Ambion, Catalog No. AM1908). The final RNA concentration was measured on NanoDrop® ND-1000 and finally diluted and stored in diethylpyrocarbonate-treated water at −80 °C. For the microinjection, the RNA of αβ receptor combinations was mixed at 1:1 ratio (which leads to αβ receptors that consist of predominantly 3 beta and 2 alpha subunits[27]), for αkβlγm (k = 1–3, l = 1, 3, m = 1, 2) receptors at 1:1:5 ratio, for αkβ3γ2 (k = 4–6) and αkβlδ (k = 1, 4 and 6, l = 1, 3) receptor combinations at 3:1:5 ratio.
(§3) Mature female Xenopus laevis (Nasco, WI) were anesthetized in a bath of ice-cold 0.17% Tricain (Ethyl-m-aminobenzoate, Sigma, MO) before decapitation in full accordance with all rules of the Austrian animal protection law (see http://www.ris.bka.gv.at/Dokumente/BgblAuth/BGBLA_2012_I_114/BGBLA_2012_I_114.pdf) and the Austrian animal experiment by-laws (see https://www.ris.bka.gv.at/Dokumente/BgblAuth/BGBLA_2012_II_522/BGBLA_2012_II_522.pdf) which implement the European Directive 2010/63/EU (see http://eur-lex.europa.eu/LexUriServ/LexUriServ.do?uri=OJ:L:2010:276:0033:0079:en:PDF) into the Austrian law (all information accessed on July 27, 2016). The frog’s ovaries were transferred to ND96 medium (96 mM NaCl, 2 mM KCl, 1 mM MgCl2, 5 mM HEPES; pH 7.5). Stage 5–6 oocytes with the follicle cell layer around them were roughly dissected with forceps into packages of 10–15 cells and washed in Ca^2+-free ND96 medium. Cells were then digested with collagenase (type IA, Sigma, NO, 1 mg/mL ND96) at 18 °C shaking at 30 rpm for 30–60 minutes and gently defolliculated with the aid of a glass pipette with appropriate tip diameter and a platinum loop. Defolliculated cells were stored at 18 °C for at least 6 hours in ND96 solution containing penicillin G (10000 IU/100 mL) and streptomycin (10 mg/100 mL) in order to preselect and exclude damaged cells from further treatment. Healthy defolliculated oocytes were injected with an aqueous solution of mRNA. A total of 4.5 ng of mRNA per oocyte was injected with a Nanoject II (Drummond). After injection of mRNA, oocytes were incubated at 18 °C (ND96 + antibiotic) for 2–3 days for αβ receptors and for 3–4 days for αβγ or αβδ receptors before recording. When cells were measured at later time points, oocytes were stored at +4 °C instead of 18 °C.
(§4) For electrophysiological recordings, oocytes were placed on a nylon-grid in a bath of Ca^2+-containing NDE solution medium [96 mM NaCl, 5 mM HEPES-NaOH (pH 7.5), 2 mM KCl, 1 mM MgCl2, 1.8 mM CaCl2].

[2] = target: T2, α1β1R41N GABAA receptors (Rattus norvegicus, UniProt P15431+P62813, R66N); assay: Two electrode voltage clamp in Xenopus laevis oocytes, mutant α1β1R41N; conditions: for current as % of control at 0.1 µM: 100nM; for current as % of control at 0.1 µM / current as % of control at 0.3 µM / current as % of control at 1 µM / current as % of control at 3 µM / current as % of control at 10 µM / current as % of control at 30 µM: read-out: % of control current at EC3-5; for current as % of control at 0.3 µM: 300nM
T2 construct: expressed in transfected cells; host or cells: Xenopus laevis oocytes, mRNA injected
T2 sequence (P62813 28-455): as the sequence (P62813 28-455) above
T2 sequence (P15431 26-474 R66N): as the sequence (P15431 26-474) above, with R41N counted along it
Text: as §1, §2, §3, §4

[3] = target: T3, α1β3N41R GABAA receptors (Rattus norvegicus, UniProt P62813+P63079, N66R); assay: Two electrode voltage clamp in Xenopus laevis oocytes, mutant α1β3N41R; conditions: co-applied with GABA EC3-5, read-out: EC50 values for the mutated receptors
T3 construct: expressed in transfected cells; host or cells: Xenopus laevis oocytes, mRNA injected
T3 sequence (P62813 28-455): as the sequence (P62813 28-455) above
T3 sequence (P63079 26-473 N66R): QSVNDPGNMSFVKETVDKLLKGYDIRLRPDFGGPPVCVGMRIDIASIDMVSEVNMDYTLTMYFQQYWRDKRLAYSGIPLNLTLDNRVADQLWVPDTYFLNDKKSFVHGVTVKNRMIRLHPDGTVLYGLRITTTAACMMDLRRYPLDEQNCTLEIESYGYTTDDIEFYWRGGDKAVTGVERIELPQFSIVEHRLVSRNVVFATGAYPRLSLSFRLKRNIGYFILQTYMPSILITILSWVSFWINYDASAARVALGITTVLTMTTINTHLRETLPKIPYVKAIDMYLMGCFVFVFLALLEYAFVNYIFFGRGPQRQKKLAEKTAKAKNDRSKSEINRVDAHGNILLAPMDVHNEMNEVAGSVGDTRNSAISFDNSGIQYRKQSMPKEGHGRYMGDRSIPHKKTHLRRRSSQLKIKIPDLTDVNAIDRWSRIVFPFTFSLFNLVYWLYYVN
Text: as §1, §2, §3, §4

[4] = target: T4, α1β2 GABAA receptors (Rattus norvegicus, UniProt P62813+P63138); assay: Two electrode voltage clamp in Xenopus laevis oocytes, α1β2
T4 construct: expressed in transfected cells; host or cells: Xenopus laevis oocytes, mRNA injected
T4 sequence (P62813 28-455): as the sequence (P62813 28-455) above
T4 sequence (P63138 25-474 limits assumed): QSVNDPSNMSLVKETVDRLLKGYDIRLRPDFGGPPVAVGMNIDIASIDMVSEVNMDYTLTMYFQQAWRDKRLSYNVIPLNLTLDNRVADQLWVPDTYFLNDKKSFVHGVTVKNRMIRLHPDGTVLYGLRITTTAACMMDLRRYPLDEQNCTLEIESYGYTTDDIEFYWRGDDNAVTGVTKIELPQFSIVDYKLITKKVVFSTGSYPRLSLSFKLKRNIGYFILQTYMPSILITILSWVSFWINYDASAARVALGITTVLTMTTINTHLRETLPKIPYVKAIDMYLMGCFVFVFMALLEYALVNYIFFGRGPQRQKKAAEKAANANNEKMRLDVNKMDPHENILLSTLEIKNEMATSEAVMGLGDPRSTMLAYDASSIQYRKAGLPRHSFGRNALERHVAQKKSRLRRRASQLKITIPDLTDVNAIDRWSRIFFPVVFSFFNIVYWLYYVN
Text: as §1, §2, §3, §4

[5] = target: T5, α1β3 GABAA receptors (Rattus norvegicus, UniProt P62813+P63079); assay: Two electrode voltage clamp in Xenopus laevis oocytes, α1β3; conditions: for activity at 0.01 µM: 10 nM; for Hill slope (nH) / EC50: α1β3
T5 construct: expressed in transfected cells; host or cells: Xenopus laevis oocytes, mRNA injected
T5 sequence (P62813 28-455): as the sequence (P62813 28-455) above
T5 sequence (P63079 26-473): as the sequence (P63079 26-473 N66R) above, with R41N counted along it
Text: as §1, §2, §3, §4

[6] = target: T6, α2β3 GABAA receptors (Rattus norvegicus, UniProt P23576+P63079); assay: Two electrode voltage clamp in Xenopus laevis oocytes, α2β3; conditions: α2β3
T6 construct: expressed in transfected cells; host or cells: Xenopus laevis oocytes, mRNA injected
T6 sequence (P23576 29-451): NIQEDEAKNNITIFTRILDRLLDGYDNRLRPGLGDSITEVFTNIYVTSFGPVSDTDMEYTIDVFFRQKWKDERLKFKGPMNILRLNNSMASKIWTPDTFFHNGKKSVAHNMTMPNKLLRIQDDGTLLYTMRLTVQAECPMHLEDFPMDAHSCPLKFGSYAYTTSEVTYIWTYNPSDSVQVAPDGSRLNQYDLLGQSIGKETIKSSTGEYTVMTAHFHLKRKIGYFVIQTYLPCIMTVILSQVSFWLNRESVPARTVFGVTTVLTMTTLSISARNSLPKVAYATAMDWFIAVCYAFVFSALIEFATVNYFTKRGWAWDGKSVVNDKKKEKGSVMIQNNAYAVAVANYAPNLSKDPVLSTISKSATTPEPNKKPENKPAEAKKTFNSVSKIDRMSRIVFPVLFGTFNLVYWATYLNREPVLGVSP
T6 sequence (P63079 26-473): as the sequence (P63079 26-473 N66R) above, with R41N counted along it
Text: as §1, §2, §3, §4

[7] = target: T7, α6β3γ2 GABAA receptors (Rattus norvegicus, UniProt P30191+P63079); assay: Two electrode voltage clamp in Xenopus laevis oocytes, α6β3γ2
T7 construct: expressed in transfected cells; host or cells: Xenopus laevis oocytes, mRNA injected
T7 sequence (P30191 20-453): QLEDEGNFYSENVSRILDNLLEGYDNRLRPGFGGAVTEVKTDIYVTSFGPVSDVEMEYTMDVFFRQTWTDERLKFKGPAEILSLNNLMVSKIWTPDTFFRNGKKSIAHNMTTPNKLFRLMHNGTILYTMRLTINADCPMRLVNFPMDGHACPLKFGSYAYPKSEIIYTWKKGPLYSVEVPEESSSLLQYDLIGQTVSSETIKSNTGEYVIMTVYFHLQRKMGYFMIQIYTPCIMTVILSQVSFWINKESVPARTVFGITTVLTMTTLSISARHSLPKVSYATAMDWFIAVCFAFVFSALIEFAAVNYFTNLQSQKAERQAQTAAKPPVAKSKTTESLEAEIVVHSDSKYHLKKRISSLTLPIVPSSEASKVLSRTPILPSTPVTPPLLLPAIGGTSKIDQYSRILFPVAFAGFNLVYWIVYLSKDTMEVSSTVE
T7 sequence (P63079 26-473): as the sequence (P63079 26-473 N66R) above, with R41N counted along it
T7 sequence (P18508 39-466 partner): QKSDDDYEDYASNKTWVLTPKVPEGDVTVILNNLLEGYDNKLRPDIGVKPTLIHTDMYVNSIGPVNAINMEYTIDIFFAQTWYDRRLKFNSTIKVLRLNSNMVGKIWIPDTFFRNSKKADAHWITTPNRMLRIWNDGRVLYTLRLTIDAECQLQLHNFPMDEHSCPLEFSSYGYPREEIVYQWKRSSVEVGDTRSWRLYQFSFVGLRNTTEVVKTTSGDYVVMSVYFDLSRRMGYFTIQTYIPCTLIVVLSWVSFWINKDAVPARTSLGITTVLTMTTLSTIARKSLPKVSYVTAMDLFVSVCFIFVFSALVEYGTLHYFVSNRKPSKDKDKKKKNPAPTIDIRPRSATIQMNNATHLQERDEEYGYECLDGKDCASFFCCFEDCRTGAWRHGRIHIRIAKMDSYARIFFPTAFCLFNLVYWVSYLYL
Text: as §1, §2, §3, §4

[8] = read-out: efficacy, % of control current (GABA EC3-5 = 100%), α1β1
[9] = read-out: efficacy, % of control current (GABA EC3-5 = 100%), α1β3
[10] = co-applied with GABA EC3-5, read-out: EC50
[11] = read-out: efficacy, % of control current (GABA EC3-5 = 100%), 1 nM
[12] = read-out: efficacy, % of control current (GABA EC3-5 = 100%), 10 nM
[13] = read-out: efficacy, % of control current (GABA EC3-5 = 100%), 1 µM
[14] = log of EC50, sign as printed, read-out: LogEC50 (converted)

COc1ccc(-n2nc3c4cc(Cl)ccc4[nH]cc-3c2=O)cc1 [Compound 1, 8-Chloro-2-(4-methoxyphenyl)-2H-pyrazolo[4,3-c]quinolin-3(5H)-one] showed an activity at 0.001 µM ([1]; read-out: efficacy, % of control current (GABA EC3-5 = 100%), α1β1, 1 nM) of 102 ± 1.7%, an activity at 0.003 µM ([1]; read-out: efficacy, % of control current (GABA EC3-5 = 100%), α1β1, 3 nM) of 100.5 ± 0.5% and an activity at 0.03 µM ([1]; read-out: efficacy, % of control current (GABA EC3-5 = 100%), α1β1, 30 nM) of 138 ± 13.3%. For the same compound, the activity at 0.3 µM [1, 8] was 292 ± 24.5%, the activity at 30 µM ([1]; read-out: efficacy, % of control current (GABA EC3-5 = 100%), α1β1, 30 µM) was 174 ± 34.2% and the “Hill slope (nH)” value ([1]; α1β1) was 1.3±0.4. For the same compound, the EC50 ([1]; α1β1 (α1+/β1− interface), read-out: EC50) was 130 nM, the current as % of control at 0.1 µM [2] was 80 ± 10% and the current as % of control at 0.3 µM [2] was 100 ± 10%. It also gave a current as % of control at 1 µM [2] of 140 ± 16%, a current as % of control at 3 µM [2] of 195 ± 20% and a current as % of control at 10 µM [2] of 205 ± 20%. The current as % of control at 30 µM [2] was 150 ± 10%, the EC50 ([2]; co-applied with GABA EC3-5) was 800 nM and the EC50 [3] was 980 nM. It also gave an EC50 [4] of 1150 nM, an activity at 0.001 µM ([4]; read-out: efficacy, % of control current (GABA EC3-5 = 100%), α1β2, 1 nM) of 100% and an activity at 10 µM ([4]; read-out: efficacy, % of control current (GABA EC3-5 = 100%), α1β2, 10 µM) of 644 ± 57%. The “Hill slope (nH)” value ([4]; α1β2) was 1.1±0.3, the activity at 0.01 µM [5, 9] was 106 ± 1.6% and the activity at 3 µM [5, 9] was 839 ± 105%. For the same compound, the “Hill slope (nH)” value [5] was 1.5±0.5 and the EC50 [5, 10] was 1840 nM.
Cc1ccc(-n2nc3c4cc(Cl)ccc4[nH]cc-3c2=O)cc1 [Compound 2, 8-Chloro-2-(4-methylphenyl)-2H-pyrazolo[4,3-c]quinolin-3(5H)-one] was tested, and the activity at 0.3 µM [1, 8] was 194 ± 23.3%, the “Hill slope (nH)” value ([1]; α1β1) was 1.0±0.4 and the EC50 ([1]; α1β1, co-applied with GABA EC3-5, read-out: EC50) was 770 nM. For the same compound, the EC50 ([1]; α1β1, log of EC50, sign as printed, read-out: LogEC50 (converted)) was 759 nM, the current as % of control at 0.1 µM [2] was 70 ± 5% and the current as % of control at 0.3 µM [2] was 62 ± 8%. The current as % of control at 1 µM [2] was 62 ± 8%, the current as % of control at 3 µM [2] was 60 ± 9% and the current as % of control at 10 µM [2] was 60 ± 10%. It also gave a current as % of control at 30 µM [2] of 60 ± 8%, an EC50 [3] of 3440 nM and an EC50 [4] of 4310 nM. For the same compound, the activity at 0.1 µM ([4]; read-out: efficacy, % of control current (GABA EC3-5 = 100%), α1β2, 100 nM) was 105 ± 1.4%, the activity at 1 µM ([4]; read-out: efficacy, % of control current (GABA EC3-5 = 100%), α1β2, 1 µM) was 134 ± 8.2% and the “Hill slope (nH)” value ([4]; α1β2) was 2.0±0.9. It also gave an activity at 0.001 µM [6, 11] of 100%, an activity at 0.01 µM [6, 12] of 100% and an activity at 0.3 µM ([6]; read-out: efficacy, % of control current (GABA EC3-5 = 100%), 300 nM) of 123 ± 4.9%. It also gave an activity at 1 µM [6, 13] of 127 ± 9.8%, an activity at 3 µM ([6]; read-out: efficacy, % of control current (GABA EC3-5 = 100%), 3 µM) of 254 ± 4% and an EC50 [6, 14] of 15800 nM. The activity at 0.001 µM ([5]; read-out: efficacy, % of control current (GABA EC3-5 = 100%), α1β3, 1 nM) was 100.1 ± 0.1%, the activity at 0.003 µM ([5]; read-out: efficacy, % of control current (GABA EC3-5 = 100%), α1β3, 3 nM) was 100.1 ± 0.1% and the activity at 0.01 µM [5, 9] was 100.7 ± 0.5%. It also gave an activity at 0.1 µM ([5]; read-out: efficacy, % of control current (GABA EC3-5 = 100%), α1β3, 100 nM) of 109 ± 2.2%, an activity at 0.3 µM ([5]; read-out: efficacy, % of control current (GABA EC3-5 = 100%), α1β3, 300 nM) of 122 ± 5.4% and an activity at 1 µM ([5]; read-out: efficacy, % of control current (GABA EC3-5 = 100%), α1β3, 1 µM) of 151 ± 11.5%. The activity at 3 µM [5, 9] was 276 ± 41.7%, the activity at 10 µM ([5]; read-out: efficacy, % of control current (GABA EC3-5 = 100%), α1β3, 10 µM) was 372 ± 40.1% and the “Hill slope (nH)” value [5] was 1.9±0.6. For the same compound, the EC50 [5, 10] was 2390 nM, the EC50 [5, 14] was 2400 nM and 2510 nM and the EC50 ([7]; co-applied with GABA EC3-5) was over 5000 nM. For the same compound, the activity at 0.001 µM [7, 11] was 106 ± 6.6%, the activity at 0.01 µM [7, 12] was 114 ± 8.8% and the activity at 0.1 µM ([7]; read-out: efficacy, % of control current (GABA EC3-5 = 100%), 100 nM) was 152 ± 12%. It also gave an activity at 1 µM [7, 13] of 297 ± 16.2% and an activity at 10 µM ([7]; read-out: efficacy, % of control current (GABA EC3-5 = 100%), 10 µM) of over 1000%.
